Assays:
[1] = system: transcription mediated amplification reaction; details: Della-Latta et al. 1999; cited from earlier work
ligase chain reaction = details: Notomi et al. 1998; cited from earlier work
nucleic acids = details: Haq et al. 1997; cited from earlier work
[2] = system: PCR of whole genomic mycobacterial DNA (Taq polymerase, primers Tb11 and Tb12); test: Reversible inhibition of PCR amplification by DNA binding ligand, product analyzed by gel electrophoresis; assay type: biochemical
Procedure: AMT is purchased from Sigma Chem. Co., St. Louis, Mo. A stock solution of 5 mg/mL AMT is prepared in de-ionized water. An amplification cocktail is prepared containing 200 picomoles of primers Tb11 and Tb12 (Devallois et al., J. Clin. Microbiol., 35:2669-73 (1997)), 1.25 units of Taq polymerase/100 μL, 200 μM dNTPs and 0.05 mg/mL AMT in a Tris-EDTA buffer, pH 7. A corresponding solution without AMT is prepared as a control.
Amplification is performed in Eppendorf tubes to which are added 0.5 μg of whole genomic mycobacterial DNA in 50 μl of buffer and either 1 μl or 10 μl of the amplification cocktail. Final volume is adjusted to 100 μl with the aqueous buffer solution (without AMT) so that the final concentrations of all PCR components, except AMT, is the same in all replicates. Controls received an amplification cocktail without AMT.
PCR amplification is performed for 45 cycles (92° C.-56° C.-72° C.; denaturation, annealing, extension) and the product analyzed by gel electrophoresis. […]

## O=P(O)(O)O [phosphate ion]
[1]
  inhibitory concentration for a transcription mediated reaction: about 0.7 mM
Ligase chain reaction
  concentration inhibitory for a ligase chain reaction: above 1.2 mM

## CN1CCN(c2ccc3[nH]c(-c4ccc5[nH]c(-c6ccc(O)cc6)nc5c4)nc3c2)CC1 [Hoechst 33258]
Nucleic acids
  affinity for nucleic acid: ≤ 3.2e+08 M⁻¹

## Cc1oc2c(C)c3oc(=O)cc(C)c3cc2c1CN [AMT, 4′-aminomethyltrioxsalen]
[2]; 0.5 μg/mL AMT, 45 cycles
  amplification product in PCR: detectable amplification product is produced
[2]; 5 μg/mL AMT, 45 cycles
  inhibition of the PCR: complete inhibition
[2]; lower concentrations of AMT: 5 ng/mL and 0.5 ng/mL
  amount of amplification product: continues to increase
